Source: US7094909B2, “HIV protease inhibitors, compositions containing the same, their pharmaceutical uses and materials for their synthesis” (priority 2001, dated 2006)
Values joined by “and” are separate entries in the source; they are usually repeats but may differ in a detail not shown here. Equal values may be shown once. Read-outs that look alike come from different tables or passages of the source.

Assays:
[1] = tested on: HIV-1 NL4-3 or HIV-1 NL4-3(I84V/L90M); test: Susceptibility assay, p24 ELISA in infected MT-2 cells; type: cell-based; conditions: Human immunodeficiency virus 1, NL43, MT2, read-out: EC50 or IC50 (mM), values without asterisk (EC50)
Method: T-cell lines, CEM-SS, and MT-2, and viruses HIV-1 RF and HIV-1 NL4-3 (pNL4-3) were obtained from the National Institutes of Health (AIDS Research and Reference Reagent Program, Bethesda, Md.).
Compounds were tested in phenotypic susceptibility assays at Virologic, Inc., (See Petropoulos C. J., Parkin N. T., Limoli K. L., Lie Y. S., Wrin T., Huang W., Tian H., Smith D., Winslow G. A., Capon D J, Whitcomb J M. 2000, “A novel phenotypic drug susceptibility assay for human immunodeficiency virus type 1,” Antimicrob Agents Chemother 44(4):920–928) or using the assay described here. MT-2 cells were infected with either HIV-1 NL4-3 or HIV-1 NL4-3([…]) and incubated in the presence of serial 0.5 log dilutions of test compounds. Three days later, culture supernatants were collected and virus production, as determined by p24 ELISA, was assayed. Percent inhibition was calculated as p24 concentration in compound-treated samples as compared to infected, compound-free controls. Inhibition of viral replication is determined by measuring reduction in HIV p24 present in the culture supernatant, using a Beckman-Coulter p24HIV-1 Ag EIA kit and following the supplied protocol. Absorbance is read on a MRX microplate reader (Dynex Technologies). The EC50 was calculated as the concentration of compound that effected a decrease in the p24 production by infected, compound-treated cells to 50% of that produced by infected, compound-free cells.

[2] = target: T1, HIV-1 protease (Q7S mutant form) (Human immunodeficiency virus type 1 group M subtype B, UniProt P04585, Q495S); test: HIV-1 Protease RET assay; type: biochemical
T1 construct: made in house
In short: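 Q7S HIV-1 protease, refolded from urea, 2 nM active dimer with 5 μM EDANS/DABCYL peptide cleaved at Tyr-Pro; fluorescence 340/490 nm. 12 min at 37 °C in 0.1M sodium acetate pH 4.8, 1M NaCl, 10% DMSO. Ki from Morrison tight-binding fit.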

[3] = tested on: HIV-1 (HIV-1 RF, HIV-1 NL4-3) in CEM-SS / MT-2 cells; test: Cytopathic effect (CPE) inhibition assay (XTT/MTT dye reduction); type: cell-based
In short: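 CEM-SS or MT-2 cells were infected with HIV-1 RF or NL4-3 (moi 0.025–0.819) and plated at 2×10^4 cells/well with half-log compound dilutions for 6 days. Viability was read by XTT formazan at 450 nm after 4 h. EC50 restores formazan to 50% of uninfected untreated cells, CC50 halves it in uninfected cells, and TI = CC50/EC50.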

[4] = Ave. Ki (nM), RET assay, Q7S enzyme, Morrison tight binding fit
[5] = Human immunodeficiency virus 1, NL43, read-out: Ave CPE EC50
[6] = Human immunodeficiency virus 1, NL43, unit inferred, read-out: EC50

Row | Compound | EC50 [1] | Ki [2, 4] | EC50 [3, 5] | Ki ([2]; Ki, unit inferred) | EC50 [3, 6]
1 | Cc1c(O)cccc1C(=O)N[C@@H](Cc1ccccc1)[C@H](O)C(=O)N1COC(C)(C)[C@H]1C(=O)N[C@@H]1C=CCCC1 [Example C29, (S)-3-((2S,3S)-2-Hydroxy-3-{[1-(3-hydroxy-2-methyl-phenyl)-methanoyl]-amino}-4-phenyl-butanoyl)-5,5-dimethyl-oxazolidine-4-carboxylic acid (S)-cyclohex-2-enylamide] | 0.00136 mM | 0.18 nM | 142 nM |  | 
2 | Cc1c(O)cccc1C(=O)N[C@@H](Cc1ccccc1)[C@H](O)C(=O)N1CC(F)(F)C(C)(C)[C@H]1C(=O)N[C@H]1CCc2ccccc21 [Example C16, (S)-4,4-Difluoro-1-[(2S,3S)-2-hydroxy-3-(3-hydroxy-2-methyl-benzoylamino)-4-phenyl-butyryl]-3,3-dimethyl-pyrrolidine-2-carboxylic acid (S)-indan-1-ylamide] | 0.000201 mM | < 0.1 nM | 19 nM |  | 
3 | Cc1ccc(F)cc1CNC(=O)[C@@H]1CC(F)(F)CN1C(=O)[C@@H](O)[C@H](Cc1ccccc1)NC(=O)c1cccc(O)c1C [Example C6, (S)-4,4-Difluoro-1-((2S,3S)-2-hydroxy-3-{[1-(3-hydroxy-2-methyl-phenyl)-methanoyl]-amino}-4-phenyl-butanoyl)-pyrrolidine-2-carboxylic acid 5-fluoro-2-methyl-benzylamide] | 0.00194 mM | 2.4 nM | 744 nM |  | 
4 | Cc1ccccc1CNC(=O)[C@@H]1CC(F)(F)CN1C(=O)[C@@H](O)[C@H](Cc1ccccc1)NC(=O)COc1c(C)cccc1C (stereo in doubt) [Example C40, 1-{3-[2-(2,6-Dimethyl-phenoxy)-acetylamino]-2-hydroxy-4-phenyl-butyryl}-4,4-difluoro-pyrrolidine-2-carboxylic acid 2-methyl-benzylamide] | 0.0018 mM | 1.8 nM and 0.82 nM |  |  | 
5 | Cc1ccc(C(=O)N[C@@H](Cc2ccccc2)[C@H](O)C(=O)N2CSC(C)(C)C2C(=O)N[C@@H]2C=CCCC2)c(C)c1O (stereo partly shown) |  |  |  | 0.13 nM | 1160 nM
6 | CC1(C)SCN(C(=O)[C@@H](O)[C@H](Cc2ccccc2)NC(=O)c2cccc3c2CCN3)[C@@H]1C(=O)NCc1ccco1 [Example B39, 2,3-Dihydro-1H-indole-4-carboxylic acid ((1S,2S)-1-benzyl-3-{(R)-4-[(furan-2-ylmethyl)-carbamoyl]-5,5-dimethyl-thiazolidin-3-yl}-2-hydroxy-3-oxo-propyl)-amide] |  | 1.9 nM | 372 nM |  | 
7 | C#CCOC(=O)N[C@@H](Cc1ccccc1)[C@H](O)C(=O)N1CSC(C)(C)[C@H]1C(=O)NCc1c(F)cccc1F [Example B51, {1-Benzyl-3-[4-(2,6-difluoro-benzylcarbamoyl)-5,5-dimethyl-thiazolidin-3-yl]-2-hydroxy-3-oxo-propyl}-carbamic acid prop-2-ynyl] |  | 0.99 nM | > 3200 nM |  | 
8 | Cc1c(O)cccc1C(=O)N[C@@H](Cc1ccccc1)[C@H](O)C(=O)N1CSC(C)(C)[C@H]1C(=O)N[C@@H]1CCc2ncccc21 [Example A52, 3-[2-Hydroxy-3-(3-hydroxy-2-methyl-benzoylamine)-4-phenyl-butyryl]-5,5-dimethyl-thiazolidine-4-carboxylic acid (6,7-dihydro-5H-[1]pyrindin-5-yl)-amide] |  | 0.51 nM | 456 nM |  | 
9 | Cc1c(O)cccc1C(=O)N[C@@H](Cc1ccccc1)[C@H](O)C(=O)N1CSC(C)(C)[C@H]1C(=O)NC1CCCC1 [Example A27, (R)-3-((2S,3S)-2-Hydroxy-3-{[1-(3-hydroxy-2-methyl-phenyl)-methanoyl]-amino}-4-phenyl-butanoyl)-5,5-dimethyl-thiazolidine-4-carboxylic acid cyclopentylamide] |  | < 0.1 nM | 110 nM |  | 
10 | Cc1c(O)cccc1C(=O)N[C@@H](Cc1ccccc1)[C@H](O)C(=O)N1CSC(C)(C)[C@H]1C(=O)NCc1csc2ccc(Cl)cc12 [Example A24, (R)-3-((2S,3S)-2-Hydroxy-3-{[1-(3-hydroxy-2-methyl-phenyl)-methanoyl]-amino}-4-phenyl-butanoyl)-5,5-dimethyl-thiazolidine-4-carboxylic acid (5-chloro-benzo[b]thiophen-3-ylmethyl)-amide] |  | 0.52 nM | 466 nM |  | 
11 | CC1(C)SCN(C(=O)[C@@H](O)[C@H](Cc2ccccc2)NC(=O)CSc2nc[nH]n2)[C@@H]1C(=O)NCC#N |  |  |  | 28 nM | ≥ 3200 nM
12 | Cc1ccccc1CNC(=O)C1N(C(=O)[C@@H](O)[C@H](Cc2ccccc2)NC(=O)CSc2nccs2)CSC1(C)C (stereo partly shown) |  |  |  | 6.9 nM | 1550 nM
13 | Cc1ccccc1CNC(=O)[C@H]1N(C(=O)[C@@H](O)[C@H](Cc2ccccc2)NC(=O)OC2CC3CCC2C3)CSC1(C)C (stereo partly shown) |  |  |  | 9.4 nM | 2880 nM
14 | Cc1ccccc1CNC(=O)[C@H]1N(C(=O)[C@@H](O)[C@H](Cc2ccccc2)NC(=O)[C@@H](NC(=O)COc2cccc(N(C)C)c2)C(C)C)CSC1(C)C |  |  |  | ≤ 0.1 nM | 14 nM
15 | Cc1c(O)cccc1C(=O)N[C@@H](Cc1ccccc1)[C@H](O)C(=O)N1CSC(C)(C)[C@H]1C(=O)NC[C@@H]1CCCO1 [Example A37, (R)-3-((2S,3S)-2-Hydroxy-3-{[1-(3-hydroxy-2-methyl-phenyl)-methanoyl]-amino}-4-phenyl-butanoyl)-5,5-dimethyl-thiazolidine-4-carboxylic acid (tetrahydro-furan-2-ylmethyl)-amide] |  | 3.7 nM | 416 nM |  | 
16 | Cc1c(F)cccc1C(=O)N[C@@H](Cc1ccccc1)[C@H](O)C(=O)N1CSC(C)(C)[C@H]1C(=O)N[C@@H]1C=CCCC1 [Example B81, (R)-3-((2S,3S)-3-{[1-(3-Fluoro-2-methyl-phenyl)-methanoyl]-amino}-2-hydroxy-4-phenyl-butanoyl)-5,5-dimethyl-thiazolidine-4-carboxylic acid (S)-cyclohex-2-enylamide] |  | 0.35 nM | 878 nM |  | 
17 | C#CCOC(=O)N[C@@H](Cc1ccccc1)[C@H](O)C(=O)N1CSC(C)(C)[C@H]1C(=O)NCc1ccncc1 [Example B67, ((1S,2S)-1-Benzyl-3-{5,5-dimethyl-4-[(pyridin-4-ylmethyl)-carbamoyl]-thiazolidin-3-yl}-2-hydroxy-3-oxo-propyl)-carbamic acid prop-2-ynyl ester] |  | 11.4 nM | > 3200 nM |  | 
18 | Cc1c(O)cccc1C(=O)N[C@@H](Cc1ccccc1)[C@H](O)C(=O)N1CSC(C)(C)[C@H]1C(=O)NN(C)c1ccccc1 [Example A57, N-{(1S,2S)-1-Benzyl-3-[(R)-5,5-dimethyl-4-(N′-methyl-N′-phenyl-hydrazinocarbonyl)-thiazolidin-3-yl]-2-hydroxy-3-oxo-propyl}-3-hydroxy-2-methyl-benzamide] |  | 5.6 nM | 1530 nM |  | 
19 | Cc1c(O)cccc1C(=O)N[C@@H](Cc1ccccc1)[C@H](O)C(=O)N1CSC(C)(C)[C@H]1C(=O)NCc1cc2ccccc2[nH]1 [Example A61, (R)-3-[(2S,3S)-2-Hydroxy-3-(3-hydroxy-2-methyl-benzoylamino)-4-phenyl-butyryl]-5,5-dimethyl-thiazolidine-4-carboxylic acid (1H-indol-2-ylmethyl)-amide] |  | 0.99 nM | 1060 nM |  | 
20 | Cc1ccccc1CNC(=O)[C@H]1C2CCC(C2)N1C(=O)[C@@H](O)[C@H](Cc1ccccc1)NC(=O)c1cccc(O)c1C (stereo partly shown) |  |  |  | 18.4 nM | 4000 nM
